Source: patent US9169254B2, “Spiroimidazolone derivative” (Chugai Seiyaku Kabushiki Kaisha, priority 2009, dated 2015)

Molecular target: T1, human PTH1 receptor (Homo sapiens, UniProt Q03431)
T1 sequence (Q03431 27-593): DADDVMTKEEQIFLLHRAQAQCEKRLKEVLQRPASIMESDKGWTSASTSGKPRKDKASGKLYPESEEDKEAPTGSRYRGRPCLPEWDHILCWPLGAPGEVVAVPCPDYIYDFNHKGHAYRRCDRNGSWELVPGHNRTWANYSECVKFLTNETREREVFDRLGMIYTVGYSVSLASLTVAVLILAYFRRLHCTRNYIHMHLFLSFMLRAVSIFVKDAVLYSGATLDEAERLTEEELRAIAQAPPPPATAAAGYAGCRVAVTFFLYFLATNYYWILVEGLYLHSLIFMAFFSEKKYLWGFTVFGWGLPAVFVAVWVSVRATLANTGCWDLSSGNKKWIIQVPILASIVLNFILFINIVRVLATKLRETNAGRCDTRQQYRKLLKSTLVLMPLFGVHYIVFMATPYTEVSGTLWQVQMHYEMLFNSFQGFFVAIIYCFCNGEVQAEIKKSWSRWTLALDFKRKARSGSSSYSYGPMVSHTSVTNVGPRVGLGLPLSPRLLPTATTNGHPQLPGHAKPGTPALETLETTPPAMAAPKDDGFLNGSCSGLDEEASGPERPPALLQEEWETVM
Assay: In vitro cAMP signal activity in HKRK-B7 cells (LLC-PK1 cells overexpressing the human PTH1 receptor)
Type: cell-based
Settings: HKRK-B7 cells; compound at 1×10^−3 M; cAMP produced as percentage of that produced by hPTH(1-34) at 100 nM

SMILES	cAMP production activity (%)
O=C(Cc1c[nH]c2cccc(CCS(=O)(=O)N3CCC4(CC3)N=C(C3CCCCC3)NC4=O)c12)NCc1ccccc1 [Compound 420, N-Benzyl-2-{4-[2-(2-cyclohexyl-4-oxo-1,3,8-triaza-spiro[4.5]dec-1-ene-8-sulfonyl)-ethyl]-1H-indol-3-yl}-acetamide]	31
Cc1cc(C(=O)N(C)C)ccc1CCS(=O)(=O)N1CCC2(CC1)N=C(C1(C(F)(F)F)CCCC1)NC2=O [Compound 138, 3,N,N-trimethyl-4-{2-[4-oxo-2-(1-trifluoromethyl-cyclopentyl)-1,3,8-triaza-spiro[4.5]dec-1-ene-8-sulfonyl]-ethyl}-benzamide]	49
O=C1NC(C2CCCCC2)=NC12CCN(S(=O)(=O)c1cccc(Cl)c1)C2 (stereo not shown) [Compound 72, 7-(3-chloro-benzenesulfonyl)-2-cyclohexyl-1,3,7-triaza-spiro[4.4]non-1-en-4-one]	1.5
Cc1cc(N(C)C(=O)C(F)(F)F)cc(C)c1CCS(=O)(=O)N1CCC2(CC1)N=C(C1CC(C)(C)CC(C)(C)C1)NC2=O [Compound 933, N-(3,5-dimethyl-4-{2-[4-oxo-2-(3,3,5,5-tetramethyl-cyclohexyl)-1,3,8-triaza-spiro[4.5]dec-1-ene-8-sulfonyl]-ethyl}-phenyl)-2,2,2-trifluoro-N-methyl-acetamide]	60
COC(=O)c1ccccc1S(=O)(=O)N1CCC2(CC1)N=C(C1CCCCC1)NC2=O [Compound 51, 2-(2-Cyclohexyl-4-oxo-1,3,8-triaza-spiro[4.5]dec-1-ene-8-sulfonyl)-benzoic acid methyl ester]	38
Cc1cc2[nH]c(=O)[nH]c(=O)c2c(C)c1CCS(=O)(=O)N1CCC2(CC1)N=C(C1CCC(C)CC1)NC2=O (stereo not shown) [Compound 685, 5,7-Dimethyl-6-{2-[2-(4-methyl-cyclohexyl)-4-oxo-1,3,8-triaza-spiro[4.5]dec-1-ene-8-sulfonyl]-ethyl}-1H-quinazoline-2,4-dione]	46
Cc1cc(C(=O)N2CCC(C)(O)CC2)cc(C)c1/C=C/[S@TB4](=O)(=O)N1CCC2(CC1)N=C(c1ccc(Cl)c(OC(F)(F)F)c1)NC2=O [Compound 1093, 2-(4-chloro-3-trifluoromethoxy-phenyl)-8-{(E)-2-[4-(4-hydroxy-4-methyl-piperidine-1-carbonyl)-2,6-dimethyl-phenyl]-ethenesulfonyl}-1,3,8-triaza-spiro[4.5]dec-1-en-4-one]	100
Cc1cc(C(=O)N2CCC(C)(O)CC2)cc(C)c1CCS(=O)(=O)N1CCC2(CC1)N=C(c1ccc(C(F)(F)F)c(Cl)c1)NC2=O [Compound 1236, 2-(3-chloro-4-trifluoromethyl-phenyl)-8-{2-[4-(4-hydroxy-4-methyl-piperidine-1-carbonyl)-2,6-dimethyl-phenyl]-ethanesulfonyl}-1,3,8-triaza-spiro[4.5]dec-1-en-4-one]	99
Cc1cc2cc(C)c1CCS(=O)(=O)N1CCC3(CC1)N=C(CCCC/C=C/CCCCCCCC(=O)N2C)NC3=O [Compound 1444]	12
Cc1cc(C(=O)N2CCN(CCCN(C)C)CC2)ccc1CCS(=O)(=O)N1CCC2(CC1)N=C(c1cccc(C(F)(F)F)c1)NC2=O [Compound 374, 8-(2-{4-[4-(3-dimethylamino-propyl)-piperazine-1-carbonyl]-2-methyl-phenyl}-ethanesulfonyl)-2-(3-trifluoromethyl-phenyl)-1,3,8-triaza-spiro[4.5]dec-1-en-4-one]	79
Cc1cc(OC2CCN(C(=O)OC(C)(C)C)CC2)ccc1CCS(=O)(=O)N1CCC2(CC1)N=C(c1cccc(OC(F)(F)F)c1)NC2=O [Compound 859, 4-(3-methyl-4-{2-[4-oxo-2-(3-trifluoromethoxy-phenyl)-1,3,8-triaza-spiro[4.5]dec-1-ene-8-sulfonyl]-ethyl}-phenoxy)-piperidine-1-carboxylic acid tert-butyl ester]	26
COCCN(C(C)=O)c1cc(C)c(CCS(=O)(=O)N2CCC3(CC2)N=C(C2CCC(CCC(F)(F)F)CC2)NC3=O)c(C)c1 (stereo not shown) [Compound 756, N-[3,5-dimethyl-4-(2-{4-oxo-2-[4-(3,3,3-trifluoro-propyl)-cyclohexyl]-1,3,8-triaza-spiro[4.5]dec-1-ene-8-sulfonyl}-ethyl)-phenyl]-N-(2-methoxy-ethyl)-acetamide]	79
Cc1cc(N2C(=O)NC(COC(C)(C)C)C2=O)cc(C)c1/C=C/S(=O)(=O)N1CCC2(CC1)N=C([C@H]1CC[C@H](C)CC1)NC2=O (stereo partly shown) [Compound 589, 5-tert-butoxymethyl-3-(3,5-dimethyl-4-{(E)-2-[2-(4-methyl-cyclohexyl)-4-oxo-1,3,8-triaza-spiro[4.5]dec-1-ene-8-sulfonyl]-vinyl}-phenyl)-imidazolidine-2,4-dione]	22
Cc1cc(N(CCF)C(N)=O)cc(C)c1/C=C/S(=O)(=O)N1CCC2(CC1)N=C(C1CCC(CCC(F)(F)F)CC1)NC2=O (stereo not shown) [Compound 694, 1-[3,5-Dimethyl-4-((E)-2-{4-oxo-2-[4-(3,3,3-trifluoro-propyl)-cyclohexyl]-1,3,8-triaza-spiro[4.5]dec-1-ene-8-sulfonyl}-vinyl)-phenyl]-1-(2-fluoro-ethyl)-urea]	77
O=C1NC(C2(c3ccccc3)CCCCC2)=NC12CCN(S(=O)(=O)c1cccc(Cl)c1)CC2 [Compound 33, 8-(3-chloro-benzenesulfonyl)-2-(1-phenyl-cyclohexyl)-1,3,8-triaza-spiro[4.5]dec-1-en-4-one]	4.4
O=C1NC(Cc2ccccc2)=NC12CCN(S(=O)(=O)c1cccc(Cl)c1)CC2 [Compound 7, 2-benzyl-8-(3-chloro-benzenesulfonyl)-1,3,8-triaza-spiro[4.5]dec-1-en-4-one]	13
CCCCCCCCCC1=NC2(CCN(S(=O)(=O)CCc3ccc(N(CCO)S(C)(=O)=O)cc3C)CC2)C(=O)N1 [Compound 720, N-(2-Hydroxy-ethyl)-N-{3-methyl-4-[2-(2-nonyl-4-oxo-1,3,8-triaza-spiro[4.5]dec-1-ene-8-sulfonyl)-ethyl]-phenyl}-methanesulfonamide]	82
CSCCCCCCCC1=NC2(CCN(S(=O)(=O)/C=C/c3c(C)cc(N(C)C(N)=O)cc3C)CC2)C(=O)N1 [Compound 1022, 1-(3,5-Dimethyl-4-{(E)-2-[2-(7-methylsulfanyl-heptyl)-4-oxo-1,3,8-triaza-spiro[4.5]dec-1-ene-8-sulfonyl]-vinyl}-phenyl)-1-methyl-urea]	105
Cc1cc(N(CCO)S(C)(=O)=O)ccc1/C=C/S(=O)(=O)N1CCC2(CC1)N=C(c1cccc(OC(F)(F)F)c1)NC2=O [Compound 719, N-(2-Hydroxy-ethyl)-N-(3-methyl-4-{(E)-2-[4-oxo-2-(3-trifluoromethoxy-phenyl)-1,3,8-triaza-spiro[4.5]dec-1-ene-8-sulfonyl]-vinyl}-phenyl)-methanesulfonamide]	77
CC(=O)N(C)c1ccc(/C=C/S(=O)(=O)N2CCC3(CC2)N=C(c2cccc(OC(F)(F)F)c2)NC3=O)c(C)c1 [Compound 237, N-methyl-N-(3-methyl-4-{(E)-2-[4-oxo-2-(3-trifluoromethoxy-phenyl)-1,3,8-triaza-spiro[4.5]dec-1-ene-8-sulfonyl]-vinyl}-phenyl)-acetamide]	74
Cc1cccc(CCCS(=O)(=O)N2CCC3(CC2)N=C(C2CCCCC2)NC3=O)c1 [Compound 316, 2-cyclohexyl-8-(3-m-tolyl-propane-1-sulfonyl)-1,3,8-triaza-spiro[4.5]dec-1-en-4-one]	20
CCCCCCCCCC1=NC2(CCN(S(=O)(=O)CCc3c(C)cc(C(=O)N4CCC(O)CC4)cc3C)CC2)C(=O)N1 [Compound 984, 8-{2-[4-(4-hydroxy-piperidine-1-carbonyl)-2,6-dimethyl-phenyl]-ethanesulfonyl}-2-nonyl-1,3,8-triaza-spiro[4.5]dec-1-en-4-one]	133
Cc1cc(C(=O)N(C)C)cc(C)c1/C=C/S(=O)(=O)N1CCC2(CC1)N=C(C1CCC(C)CC1)NC2=O (stereo not shown) [Compound 1003, 3,5,N,N-tetramethyl-4-{(E)-2-[2-(4-methyl-cyclohexyl)-4-oxo-1,3,8-triaza-spiro[4.5]dec-1-ene-8-sulfonyl]-vinyl}-benzamide]	67
Cc1cc(C(=O)N2CC[C@@H](N)C2)cc(C)c1/C=C/S(=O)(=O)N1CCC2(CC1)N=C(c1cccc(OC(F)(F)F)c1)NC2=O [Compound 404, 8-{(E)-2-[4-((R)-3-amino-pyrrolidine-1-carbonyl)-2,6-dimethyl-phenyl]-ethenesulfonyl}-2-(3-trifluoromethoxy-phenyl)-1,3,8-triaza-spiro[4.5]dec-1-en-4-one]	88
Cc1cc(C(=O)N(C)C)ccc1CCS(=O)(=O)N1CCC2(CC1)N=C(c1cccc(Br)c1)NC2=O [Compound 91, 4-{2-[2-(3-bromo-phenyl)-4-oxo-1,3,8-triaza-spiro[4.5]dec-1-ene-8-sulfonyl]-ethyl}-3,N,N-trimethyl-benzamide]	73
